Activity calls are given as the source filed them. The rule behind the calls is not given here.
System: rodent carcinogenicity bioassays, tumor incidence
Experiment: CCRIS carcinogenicity studies
Outline: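 Archive of carcinogenicity, mutagenicity, tumor promotion and tumor inhibition results drawn from journals, NCI reports and other sources, expert-reviewed; covers 1985-2011 and is no longer updated.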

For O=C1OC2(c3ccccc31)c1ccc(O)c(I)c1Oc1c2ccc(O)c1I, the carcinogen call (Species: MOUSE, Strain/Sex: ICR/FEMALE, Route: DERMAL, Dose: 0, 1 MG IN 0.1 ML DISTILLED WATER 2/WK FOR A MEAN TOTAL DOSE OF 132.6 MG (STUDY DURATION: 18 MO)) was “inactive; negative” and the carcinogen call (Species: MOUSE, Strain/Sex: ICR/MALE, Route: DERMAL, Dose: 0, 1 MG IN 0.1 ML DISTILLED WATER 2/WK FOR A MEAN TOTAL DOSE OF 132.6 MG (STUDY DURATION: 18 MO)) was “inactive; negative”.

OCCNCCO was tested, and the carcinogen call (Species: MOUSE, Strain/Sex: B6C3F1/FEMALE, Route: DERMAL, Dose: 0, 40, 80, 160 MG/KG BW IN ETHANOL 5 D/WK FOR 103 WK (STUDY DURATION: 103 WK), Dose: 0, 40, 80, 160 MG/KG BW IN ETHANOL 5 D/WK FOR 103 WK (STUDY DURATION: 103 WK), Tumor Site: Type of Lesion: LIVER: HEPATOCELLULAR ADENOMA, HEPATOCELLULAR CARCINOMA, OR HEPATOBLASTOMA) was “active; positive”, the carcinogen call (Species: MOUSE, Strain/Sex: B6C3F1/MALE, Route: DERMAL, Dose: 0, 40, 80, 160 MG/KG BW IN ETHANOL 5 D/WK FOR 103 WK (STUDY DURATION: 103 WK), Dose: 0, 40, 80, 160 MG/KG BW IN ETHANOL 5 D/WK FOR 103 WK (STUDY DURATION: 103 WK), Tumor Site: Type of Lesion: LIVER: HEPATOCELLULAR ADENOMA, HEPATOCELLULAR CARCINOMA, OR HEPATOBLASTOMA) was “active; positive” and the carcinogen call (Species: RAT, Strain/Sex: F344/N/FEMALE, Route: DERMAL, Dose: 0, 8, 16, 32 MG/KG BW IN ETHANOL 5 D/WK FOR 103 WK (STUDY DURATION: 103 WK), Dose: 0, 8, 16, 32 MG/KG BW IN ETHANOL 5 D/WK FOR 103 WK (STUDY DURATION: 103 WK)) was “inactive; negative”. For the same molecule, the carcinogen call (Species: RAT, Strain/Sex: F344/N/MALE, Route: DERMAL, Dose: 0, 16, 32, 64 MG/KG BW IN ETHANOL 5 D/WK FOR 103 WK (STUDY DURATION: 103 WK), Dose: 0, 16, 32, 64 MG/KG BW IN ETHANOL 5 D/WK FOR 103 WK (STUDY DURATION: 103 WK)) was “inactive; negative”.

With Cn1c(=O)c2c(ncn2C)n(C)c1=O the carcinogen call (Species: RAT, Strain/Sex: SPRAGUE-DAWLEY/FEMALE, Route: ORAL, Dose: 0, 200, 430, 930, 2000 MG/L IN DRINKING WATER FOR 24 MO (STUDY DURATION: 2 YR), Dose: 0, 200, 430, 930, 2000 MG/L IN DRINKING WATER FOR 24 MO (STUDY DURATION: 2 YR)) was “inactive; negative”, the carcinogen call (Species: RAT, Strain/Sex: SPRAGUE-DAWLEY/MALE, Route: ORAL, Dose: 0, 200, 430, 930, 2000 MG/L IN DRINKING WATER FOR 24 MO (STUDY DURATION: 2 YR), Dose: 0, 200, 430, 930, 2000 MG/L IN DRINKING WATER FOR 24 MO (STUDY DURATION: 2 YR)) was “inactive; negative” and the carcinogen call (Species: RAT, Strain/Sex: WISTAR/MALE,FEMALE, Route: ORAL, Dose: 0, 0.1, 0.2% SOLN. IN DRINKING WATER FOR 78 WK, Dose: 0, 0.1, 0.2% SOLN. IN DRINKING WATER FOR 78 WK) was “inactive; negative”.

[N-]=[N+]=[N-] was tested, and the carcinogen call (Species: RAT, Strain/Sex: F344/FEMALE, Route: GAVAGE, Dose: 0, 5, 10 MG/KG IN DISTILLED WATER 5 D/WK FOR 103 WK (STUDY DURATION: 2 YR), Dose: 0, 5, 10 MG/KG IN DISTILLED WATER 5 D/WK FOR 103 WK (STUDY DURATION: 2 YR)) was “inactive; negative” and the carcinogen call (Species: RAT, Strain/Sex: F344/MALE, Route: GAVAGE, Dose: 0, 5, 10 MG/KG IN DISTILLED WATER 5 D/WK FOR 103 WK (STUDY DURATION: 2 YR), Dose: 0, 5, 10 MG/KG IN DISTILLED WATER 5 D/WK FOR 103 WK (STUDY DURATION: 2 YR)) was “inactive; negative”.

For O=CNNC=O, the carcinogen call (Species: MOUSE, Strain/Sex: SWISS/FEMALE, Route: ORAL, Dose: 0, 2% SOLUTION IN DRINKING WATER FROM AGE 6 WK FOR LIFE FOR AN AVERAGE DAILY INTAKE OF 0, 144 MG, Dose: 0, 2% SOLUTION IN DRINKING WATER FROM AGE 6 WK FOR LIFE FOR AN AVERAGE DAILY INTAKE OF 0, 144 MG, Tumor Site: Type of Lesion: LUNG: ADENOMA OR ADENOCARCINOMA) was “active; positive” and the carcinogen call (Species: MOUSE, Strain/Sex: SWISS/MALE, Route: ORAL, Dose: 0, 2% SOLUTION IN DRINKING WATER FROM AGE 6 WK FOR LIFE FOR AN AVERAGE DAILY INTAKE OF 0, 146 MG, Dose: 0, 2% SOLUTION IN DRINKING WATER FROM AGE 6 WK FOR LIFE FOR AN AVERAGE DAILY INTAKE OF 0, 146 MG, Tumor Site: Type of Lesion: LUNG: ADENOMA OR ADENOCARCINOMA) was “active; positive”.

c1ccc2c(c1)cc1c3ccccc3c3cccc4ccc2c1c43 was tested, and the carcinogen call (Species: MOUSE, Route: DERMAL, Tumor Site: Type of Lesion: INTEGUMENTARY SYSTEM (SKIN)) was “active; positive” and the carcinogen call (Species: MOUSE, Route: SUBCUTANEOUS, Tumor Site: Type of Lesion: INJECTION SITE) was “active; positive”.

For Cc1c(N(C)CS(=O)(=O)O)c(=O)n(-c2ccccc2)n1C, the carcinogen call (Species: MOUSE, Strain/Sex: B6C3F1/FEMALE, Route: ORAL, Dose: 0, 0.25, 1% IN DRINKING WATER FOR 78 WK (STUDY DURATION: 86 WK), Dose: 0, 0.25, 1% IN DRINKING WATER FOR 78 WK (STUDY DURATION: 86 WK), Tumor Site: Type of Lesion: LIVER: ADENOMA) was “active; positive”, the carcinogen call (Species: MOUSE, Strain/Sex: B6C3F1/MALE, Route: ORAL, Dose: 0, 0.125, 0.5% IN DRINKING WATER FOR 78 WK (STUDY DURATION: 86 WK), Dose: 0, 0.125, 0.5% IN DRINKING WATER FOR 78 WK (STUDY DURATION: 86 WK), Tumor Site: Type of Lesion: LIVER: ADENOMA) was “active; positive” and the carcinogen call (Species: RAT, Strain/Sex: F344/MALE, Route: ORAL, Dose: 0.4% IN DRINKING WATER FOR 72 WK (STUDY DURATION: 83 WK)) was “inactive; negative”. For the same molecule, the carcinogen call (Species: RAT, Strain/Sex: WISTAR/FEMALE, Route: ORAL, Dose: 0, 1000, 3000 PPM IN DIET FOR 24 MO (STUDY DURATION: 30 MO), Dose: 0, 1000, 3000 PPM IN DIET FOR 24 MO (STUDY DURATION: 30 MO)) was “inactive; negative” and the carcinogen call (Species: RAT, Strain/Sex: WISTAR/MALE, Route: ORAL, Dose: 0, 1000, 3000 PPM IN DIET FOR 24 MO (STUDY DURATION: 30 MO), Dose: 0, 1000, 3000 PPM IN DIET FOR 24 MO (STUDY DURATION: 30 MO)) was “inactive; negative”.

For CN(N=O)C(CCCO)c1cccnc1 (centres undefined), the carcinogen call (Species: MOUSE, Strain/Sex: STRAIN-A/FEMALE, Route: INTRAPERITONEAL, Dose: 0, 200 UMOL TOTAL DOSE ADMINISTERED IN SUBDOSES 3/WK FOR 7 WK (STUDY DURATION: 37 WK)) was “inactive; negative”.

With Nc1ccc(S(=O)(=O)c2ccc(N)cc2)cc1 the carcinogen call (Species: MOUSE, Strain/Sex: B6C3F1/FEMALE, Route: ORAL, Dose: 0, 500, 1000 PPM IN DIET FOR 78 WK (STUDY DURATION: 105-108 WK), Dose: 0, 500, 1000 PPM IN DIET FOR 78 WK (STUDY DURATION: 105-108 WK)) was “inactive; negative”, the carcinogen call (Species: MOUSE, Strain/Sex: B6C3F1/MALE, Route: ORAL, Dose: 0, 500, 1000 PPM IN DIET FOR 78 WK (STUDY DURATION: 105-106 WK), Dose: 0, 500, 1000 PPM IN DIET FOR 78 WK (STUDY DURATION: 105-106 WK)) was “inactive; negative” and the carcinogen call (Species: RAT, Strain/Sex: BDIV/MALE,FEMALE, Route: GAVAGE, Dose: 100 MG/KG TO MOTHERS DURING PREGNANCY AND DURING WEANING, 52 G/KG (TOTAL DOSE) TO OFFSPRING AFTER WEANING, Tumor Site: Type of Lesion: THYROID GLAND: MALIGNANT C CELL TUMOR) was “active; positive”. For the same molecule, the carcinogen call (Species: RAT, Strain/Sex: F344/FEMALE, Route: ORAL, Dose: 0, 600, 1200 PPM IN DIET FOR 78 WK (STUDY DURATION: 105-106 WK), Dose: 0, 600, 1200 PPM IN DIET FOR 78 WK (STUDY DURATION: 105-106 WK)) was “inactive; negative”, the carcinogen call (Species: RAT, Strain/Sex: F344/FEMALE, Route: ORAL, Dose: 0, 600, 1200 PPM IN DIET FOR 78 WK (STUDY DURATION: 105 WK), Dose: 0, 600, 1200 PPM IN DIET FOR 78 WK (STUDY DURATION: 105 WK)) was “inactive; negative” and the carcinogen call (Species: RAT, Strain/Sex: F344/MALE, Route: ORAL, Dose: 0, 600, 1200 PPM IN DIET FOR 78 WK (STUDY DURATION: 104-106 WK), Dose: 0, 600, 1200 PPM IN DIET FOR 78 WK (STUDY DURATION: 104-106 WK), Tumor Site: Type of Lesion: SPLEEN: FIBROMA OR FIBROSARCOMA OR SARCOMA (NOS), PERITONEAL CAVITY: FIBROSARCOMA, SARCOMA (NOS)) was “active; positive”. For the same molecule, the carcinogen call (Species: RAT, Strain/Sex: F344/MALE, Route: ORAL, Dose: 0, 600, 1200 PPM IN DIET FOR 78 WK (STUDY DURATION: 105 WK), Dose: 0, 600, 1200 PPM IN DIET FOR 78 WK (STUDY DURATION: 105 WK), Tumor Site: Type of Lesion: SPLEEN OR PERITONEUM: SARCOMA) was “active; positive” and the carcinogen call (Species: RAT, Strain/Sex: WISTAR/MALE, Route: ORAL, Dose: 0.025% INCREASED TO 0.3% BY THIRD MO, Tumor Site: Type of Lesion: MULTIPLE SITES) was “active; positive”.
